Results on 36 compounds are retold here after patent US20240109893A1, “PREPARATION AND APPLICATION METHOD OF HETEROCYCLIC COMPOUNDS AS KRAS INHIBITOR” (SHANGHAI KECHOW PHARMA, INC., priority 2020, published 2024).

pIC50: −log10 of the molar value.

This test concerns H358 cells. Put plainly: Cell activity experiment: activity test of H358 cells (MTT, 5 days). Type of test: cell-based. The following applies: Homo sapiens, NCI-H358, 120 h, 5 days incubation, absorbance 492 nm. The procedure, abridged: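 H358 cells seeded 90 μL at 55555 cells/mL, grown 24 h, then exposed to 3-fold serial compound dilutions (final top 10000 nM, 0.5% DMSO) in triplicate for 5 days at 37° C., 5% CO2. Viability by MTT (4 h), formazan dissolved in DMSO, absorbance at 492 nm.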
`C=CC(=O)N1CCN(c2nc(OC[C@@H]3CCCN3C)nc3nc(-c4cccc5c4CCCC5)ccc23)C[C@@H]1CC#N` [Example 77, 2-((S)-1-acryloyl-4-(2-(((S)-1-methylpyrrolidin-2-yl)methoxy)-7-(5,6,7,8-tetrahydronaphthalen-1-yl)pyridino[2,3-d]pyrimidin-4-yl)piperazin-2-yl)acetonitrile] had a pIC50 of 7.26. Take `C=C(F)C(=O)N1CCN(c2nc(OC[C@@H]3CCCN3C)nc3cc(-c4cccc5cccc(Cl)c45)ccc23)C[C@@H]1CC#N` [Example 78]: the pIC50 is 7.22. Under `C=CC(=O)N1CCN(c2nc(OC[C@@H]3C[C@@H](F)CN3C)nc3cc(-c4cccc5cccc(Cl)c45)ccc23)C[C@@H]1CC#N` [Example 79, 2-((S)-1-acryloyl-4-(7-(8-chloronaphthalen-1-yl)-2-((((2S,4R)-4-fluoro-1-methylpyrrolidin-2-yl]methoxy))quinazolin-4-yl)piperazin-2-yl)acetonitrile] stands 7.70; under `C=C(F)C(=O)N1CCN(c2nc(OC[C@@H]3C[C@@H](F)CN3C)nc3cc(-c4cccc5cccc(Cl)c45)ccc23)C[C@@H]1CC#N` [Example 80], 7.19. For the compound `C=CC(=O)N1CCN(c2nc(OCC34CCCN3CCC4)nc3cc(-c4cccc5cccc(Cl)c45)ccc23)C[C@@H]1CC#N` [Example 81], the pIC50 was 8.26. `C=C(F)C(=O)N1CCN(c2nc(OCC34CCCN3CCC4)nc3cc(-c4cccc5cccc(Cl)c45)ccc23)C[C@@H]1CC#N` [Example 82, (S)-2-(4-(7-(8-chloronaphthalen-1-yl)-2-((tetrahydro-1H-pyrrolizin-7a(5H)-yl)methoxy)quinazolin-4-yl)-1-(2-fluoroacryloyl)piperazin-2-yl)acetonitrile] had a pIC50 of 7.92. In turn, `C=CC(=O)N1CCN(c2nc(OC[C@@]34CCCN3C[C@H](F)C4)nc3cc(-c4cccc5cccc(Cl)c45)ccc23)C[C@@H]1CC#N` [Example 83] gave a pIC50 of 8.49. Take `C=C(F)C(=O)N1CCN(c2nc(OC[C@@]34CCCN3CC(F)C4)nc3cc(-c4cccc5cccc(Cl)c45)ccc23)C[C@@H]1CC#N` (stereo partly drawn) [Example 84]: the negative logarithm of the IC50 (pIC50) was 8.00. Under `C=CC(=O)N1CC[C@@H]2[C@H]1CN2c1nc(OC[C@@H]2CCCN2C)nc2cc(-c3cccc4cccc(Cl)c34)ccc12` [Example 85, 1-((1R,5R)-6-(7-(8-chloronaphthalen-1-yl)-2-(((S)-1-methylpyrrolidin-2-yl)methoxy)quinazolin-4-yl)-2,6-diazabicyclo[3.2.0]hept-2-yl)prop-2-en-1-one] stands 8.22. For the compound `C=CC(=O)N1CCN(c2nc(OC[C@@H]3CCCN3C)nc3cc(-c4cccc5ccc(F)c(Cl)c45)ccc23)C[C@@H]1CC#N` [Example 93, 2-((S)-1-acryloyl-4-(7-(8-chloro-7-fluoronaphthalen-1-yl)-2-(((S)-1-methylpyrrolidin-2-yl)methoxy)quinazolin-4-yl)piperazin-2-yl)acetonitrile], the negative-log IC50 (pIC50) was 8.19. For `C=C(F)C(=O)N1CCN(c2nc(OC[C@@H]3CCCN3C)nc3cc(-c4cccc5ccc(F)c(Cl)c45)ccc23)C[C@@H]1CC#N` [Example 94, 2-((S)-4-(7-(8-chloro-7-fluoronaphthalen-1-yl)-2-(((S)-1-methylpyrrolidin-2-yl)methoxy)quinazolin-4-yl)-1-(2-fluoroacryloyl)piperazin-2-yl)acetonitrile] the value was 7.82; for `C=CC(=O)N1CCN(c2nc(OC[C@@H]3C[C@@H](F)CN3C)nc3cc(-c4cccc5ccc(F)c(Cl)c45)ccc23)C[C@@H]1CC#N` [Example 95], 8.10; for `C=C(F)C(=O)N1CCN(c2nc(OC[C@@H]3C[C@@H](F)CN3C)nc3cc(-c4cccc5ccc(F)c(Cl)c45)ccc23)C[C@@H]1CC#N` [Example 96], 7.60.

`C=CC(=O)N1CCN(c2nc(OCC34CCCN3CCC4)nc3cc(-c4cccc5ccc(F)c(Cl)c45)ccc23)C[C@@H]1CC#N` [Example 97, (S)-2-(1-acryloyl-4-(7-(8-chloro-7-fluoronaphthalen-1-yl)-2-((tetrahydro-1H-pyrrolizin-7a(5H)-yl)methoxy)quinazolin-4-yl)piperazin-2-yl)acetonitrile] gave a pIC50 of 9.31. As to `C=C(F)C(=O)N1CCN(c2nc(OCC34CCCN3CCC4)nc3cc(-c4cccc5ccc(F)c(Cl)c45)ccc23)C[C@@H]1CC#N` [Example 98, (S)-2-(4-(7-(8-chloro-7-fluoronaphthalen-1-yl)-2-((tetrahydro-1H-pyrrolizin-7a(5H)-yl)methoxy)quinazolin-4-yl)-1-(2-fluoroacryloyl)piperazin-2-yl)acetonitrile], the pIC50 was 8.10. In turn, `C=CC(=O)N1CCN(c2nc(OCC34CCCN3C[C@H](F)C4)nc3cc(-c4cccc5ccc(F)c(Cl)c45)ccc23)C[C@@H]1CC#N` (stereo partly drawn) [Example 99] gave a pIC50 of 9.47. Turning to `C=C(F)C(=O)N1CCN(c2nc(OCC34CCCN3C[C@H](F)C4)nc3cc(-c4cccc5ccc(F)c(Cl)c45)ccc23)C[C@@H]1CC#N` (stereo partly drawn) [Example 100], the pIC50 was 8.22. For `C=CC(=O)N1CC[C@@H]2[C@H]1CN2c1nc(OC[C@@H]2CCCN2C)nc2cc(-c3cccc4ccc(F)c(Cl)c34)ccc12` [Example 101, 1-((1R,5R)-6-(7-(8-chloro-7-fluoronaphthalen-1-yl)-2-(((S)-1-methylpyrrolidin-2-yl)methoxy)quinazolin-4-yl)-2,6-diazabicyclo[3.2.0]hept-2-yl)prop-2-en-1-one] the value was 8.30.

Take `C=CC(=O)N1CCN(c2nc(Oc3cccc4c3CCN(C)C4)nc3cc(-c4cccc5c4CCCC5)ccc23)C[C@@H]1CC#N` [Example 109]: the pIC50 is 6.54. With `C=CC(=O)N1CCN(c2nc(OC[C@@H]3CCCN3C)nc3cc(-c4cccc5c4CCCC5)ccc23)C[C@@H]1CC#N` [Example 110, 2-((S)-1-acryloyl-4-(2-(((S)-1-methylpyrrolidin-2-yl)methoxy)-7-(5,6,7,8-tetrahydronaphthalen-1-yl)quinazolin-4-yl)piperazin-2-yl)acetonitrile], the pIC50 is 7.46. Take `C=C(F)C(=O)N1CCN(c2nc(OC[C@@H]3CCCN3C)nc3cc(-c4cccc5c4CCCC5)ccc23)C[C@@H]1CC#N` [Example 111]: the pIC50 is 6.85. Compound `C=CC(=O)N1CCN(c2nc(OC[C@@H]3C[C@@H](F)CN3C)nc3cc(-c4cccc5c4CCCC5)ccc23)C[C@@H]1CC#N` [Example 112] showed a pIC50 of 7.42. On to `C=C(F)C(=O)N1CCN(c2nc(OC[C@@H]3C[C@@H](F)CN3C)nc3cc(-c4cccc5c4CCCC5)ccc23)C[C@@H]1CC#N` [Example 113], for which the pIC50 is 6.82. `C=CC(=O)N1CCN(c2nc(OCC34CCCN3CCC4)nc3cc(-c4cccc5c4CCCC5)ccc23)C[C@@H]1CC#N` [Example 114, (S)-2-(1-acryloyl-4-(2-((tetrahydro-1H-pyrrolizin-7a(5H)-yl)methoxy)-7-(5,6,7,8-tetrahydronaphthalen-1-yl)quinazolin-4-yl)piperazin-2-yl)acetonitrile] gave a pIC50 of 7.70. In the case of `C=C(F)C(=O)N1CCN(c2nc(OCC34CCCN3CCC4)nc3cc(-c4cccc5c4CCCC5)ccc23)C[C@@H]1CC#N` [Example 115], the pIC50 is 7.35. Regarding `C=CC(=O)N1CCN(c2nc(OCC34CCCN3C[C@H](F)C4)nc3cc(-c4cccc5c4CCCC5)ccc23)C[C@@H]1CC#N` (stereo partly drawn) [Example 116], the pIC50 is 7.82. `C=C(F)C(=O)N1CCN(c2nc(OCC34CCCN3C[C@H](F)C4)nc3cc(-c4cccc5c4CCCC5)ccc23)C[C@@H]1CC#N` (stereo partly drawn) [Example 117] showed a pIC50 of 7.52. For the compound `C=CC(=O)N1CCN(c2nc(OC[C@@H]3CCCN3C)nc3cc(-c4cncc5cccc(Cl)c45)ccc23)C[C@@H]1CC#N` [Example 126, 2-((S)-1-acryloyl-4-(7-(5-chloroisoquinolin-4-yl)-2-((((S)-1-methylpyrrolidin-2-yl)methoxy)quinazolin-4-yl])piperazin-2-yl)acetonitrile], the negative-log IC50 (pIC50) is 7.74.

As for `C=C(F)C(=O)N1CCN(c2nc(OC[C@@H]3CCCN3C)nc3cc(-c4cncc5cccc(Cl)c45)ccc23)C[C@@H]1CC#N` [Example 127], the pIC50 was 7.14. As to `C=CC(=O)N1CCN(c2nc(OC[C@@H]3C[C@@H](F)CN3C)nc3cc(-c4cncc5cccc(Cl)c45)ccc23)C[C@@H]1CC#N` [Example 128, 2-((S)-1-acryloyl-4-(7-(5-chloroisoquinolin-4-yl)-2-((((2S,4R)-4-fluoro-1-methylpyrrolidin-2-yl)methoxy))quinazolin-4-yl)piperazin-2-yl)acetonitrile], the pIC50 is 7.70. `C=C(F)C(=O)N1CCN(c2nc(OC[C@@H]3C[C@@H](F)CN3C)nc3cc(-c4cncc5cccc(Cl)c45)ccc23)C[C@@H]1CC#N` [Example 129] gave a pIC50 of 7.30. For the compound `C=CC(=O)N1CCN(c2nc(OCC34CCCN3CCC4)nc3cc(-c4cncc5cccc(Cl)c45)ccc23)C[C@@H]1CC#N` [Example 130, (S)-2-(1-acryloyl-4-(7-(5-chloroisoquinolin-4-yl)-2-((tetrahydro-1H-pyrrolizin-7a(5H)-yl)methoxy)quinazolin-4-yl)piperazin-2-yl)acetonitrile], the pIC50 was 8.10. With `C=C(F)C(=O)N1CCN(c2nc(OCC34CCCN3CCC4)nc3cc(-c4cncc5cccc(Cl)c45)ccc23)C[C@@H]1CC#N` [Example 131, (S)-2-(4-(7-(5-chloroisoquinolin-4-yl)-2-((tetrahydro-1H-pyrrolizin-7a(5H)-yl)methoxy)quinazolin-4-yl)-1-(2-fluoroacryloyl)piperazin-2-yl)acetonitrile], the pIC50 was 7.80. In the case of `C=CC(=O)N1CCN(c2nc(OCC34CCCN3C[C@H](F)C4)nc3cc(-c4cncc5cccc(Cl)c45)ccc23)C[C@@H]1CC#N` (stereo partly drawn) [Example 132], the pIC50 was 8.52.

`C=C(F)C(=O)N1CCN(c2nc(OCC34CCCN3C[C@H](F)C4)nc3cc(-c4cncc5cccc(Cl)c45)ccc23)C[C@@H]1CC#N` (stereo partly drawn) [Example 133] had a pIC50 of 8.10.

`C=CC(=O)N1CCN(c2nc(OC[C@@H]3CCCN3C)nc3cc(-c4cncc5c4CCCC5)ccc23)C[C@@H]1CC#N` [Example 142] had a pIC50 of 7.70.

What is called pIC50 is the negative decadic logarithm of the IC50, by convention in mol/L. Read a high pIC50 as a low IC50.
